Series [1] relates to HepG2 cell. Briefly: Cell apoptosis of the liver cell line by AAP (DAPI dyeing, DNA fragmentation). Type of series: cell-based. As to conditions: HepG2, culture for 24 hours with AAP. The source says:
Accordingly, to confirm that the cell proliferation inhibition effect by AAP is a phenomenon by the cell apoptosis, the cell with AAP and cell with no AAP are washed by PBS by means of the characteristics in which only DNA within the cell nucleus, especially, only the cell apoptosis DNA is dyed. Thereafter, the cells are dyed by the DAPI solution and then observed by a fluorescent microscopy.
Specifically, the HepG2 cell treated by the seaweed protein is washed by PBS, fixed at the room temperature for 10 minutes by 3.7% of paraformaldehyde, and dyed by means of the 4,6-diamindino-2-phenylindole (DAPI)(sigma) solution as fluorescent materials for 10 minutes. These cells are again washed by twice and the form change of the nucleus thereof is compared with that of the normal group by means of a fluorescence microscope.
To examine the DNA fragmentation phenomenon, the seaweed protein purified by the example 1 is added to the liver cell by concentration (0˜100[…]/□), then cultured for 24 hours, and thereafter mixed with the homogenate (nuclear lysis buffer, 100 mM NaCl2, 40 mM Tris-Cl, pH 7.4, 20 mM EDTA, 0.5% SDS). […] 10[…] of DNA is treated by an electrophoresis manner (50V, 2 hours) in the agarose cell, dyed by editium bromide, and measured by means of ultraviolet rays and the like.

The subject of series [2] is caspase-3, PARP, Bcl-2 in liver cell. Briefly: Western blot of cell apoptosis related proteins in liver cell treated by AAP. The following applies: liver cell treated by AAP according to the concentration, 24 hours. Type of series: cell-based. As to the method: Through the above results, since it is confirmed that the cell apoptosis of the liver cell is induced by AAP, the liver cell is treated by means of AAP according to the concentration and the western blot is executed to observe the expression modes of the protein related to the cell apoptosis. For this, a cell is cultured at a culture dish of 100-mm diameter until it become a confluent monolayer of a confluent state by a medium containing 10% FBS. Thereafter, the medium is replaced with a serum free medium and cultured for 24 hours. After 24 hours, each sample is treated by a serum free medium added according to the concentration and cultured for 24 hours. The culture solution is removed, then washed by the cold PBS solution, and thereafter the cell is recovered through the cell lysate buffer solution containing 1% triton. After the centrifugal process, 4× Laemmli sample buffer (13.3% SDS, 0.4M Tris, 0.013% bromopheno blue, 40% glycerol, pH 6.5) is added to the obtained upper layer solution by 1× of concentration and then an electrophoresis manner is performed in 12.5% SDS-polyacrylamid gel by means of Mighty Small II Apparatus (Hopper Science Instruments, USA). After the electrophoresis manner, the protein separated into the gel is transferred to Immobilon-P membrane (Milipore corporation, the pore size: 0.1[…], USA) by means of Semi-dry Transfer unit, Sigma, USA), reacted at the room temperature for 2 hours in 1×TBS (Tris-buffered saline; 20 mM Tris-base, 137 mM NaCl, 1M HCl) containing 1% BSA, and thereafter left for a night at 4° C. by a primary antibody. Thereafter, the protein is washed by three times at each 10 minutes by TBS-T (Tris-buffered saline, 0.1% Tween 20) and reacted at the room temperature for 1 hour together with the anti-rabbit or anti-mouse IgG-conjugated horseradish peroxide secondary antibody diluted by 1:20,000. […]
(In general: Immunoblotting shows a protein as a band on a membrane.)

Series [3] has as its system liver tissue of a rat. Briefly: Liver appearance and H&E histology of liver tissue, AAP induced liver injury. The following applies: rats, AAP 700 mg/kg abdominal administration, 24 hours. Type of series: in vivo. As to the method: For this, the liver tissue of the white rat bred by each experiment group is extracted and lightly washed by the saline solution so that blood is removed. A portion of the liver tissue is cut and then the cut liver tissue is cut into thickness of 0.5 cm and fixed into Bouin fixation solution. Thereafter, the cut liver tissue is inserted into a tissue capsule within 24 hours by using the same fixation solution and fixed again. Thereafter, the fixed tissue is washed, inserted into an autotechnicon, dehydrated in the sequencing concentration alcohol and processed transparently by xylene. At an embedding center, paraffin is infiltrated into the tissue capsule and an embedding process is performed, so that a block is manufactured. The block is cut thinly with thickness of 5[…] by a rotary microtome and the cut blocks are left in a floating thermostat in order to be spreaded fully and then attached onto a clean slide glass. Thereafter, to firmly adhere the slide glass and the tissue cut pieces, the slide glass with the tissue cut pieces is left at a slide warmer maintaining temperature of about 60° C. Finally, to basically observe the arrangement of cell and the morphological change, all tissue pieces are dyed by Hematoxylin & Eosin capable of separately seeing the nucleus and cytoplasm and thereafter, observed by an optical microscopy.

Series [4] deals with GOT and GPT in the serum. Briefly: GOT and GPT in serum. Type of series: in vivo, rat. The following applies: rats, AAP 700 mg/kg, 24 hours. The method, then: GOT and GPT in the serum as liver function indicators are enzymes which reflect the change and necrosis of the liver cell and spilled in great quantities in the blood when damaging the liver tissue. GOT/GPT in the serum are measured by using a kit for measuring GOT (Glutamic oxaloacetic transaminase) and GPT (Glutamic pyruvic transaminase) activity measuring serum transaminase (Shinyang Chemistry, Republic of Korea) manufactured by Retiman-Frankle's manner through a spectrum photometer (Ultrospec 2001 pro. amersham phamasia biotech, United Kingdom) at 505 nm and then the result is shown in FIG. 4.

Series [5] relates to caspase-3. Briefly: Caspase-3 activity in the liver tissue (DEVD-pNA substrate). Format: in vivo, rat. As to conditions: rats, AAP 700 mg/kg; control group 100%. As to the method: Accordingly, to confirm the cell apoptosis when generating the liver injury by AAP, the activity of the caspase-3 is measured. For this, the liver tissue is homogenized by the lysis buffer (25 mM HEPES, pH 7.5, 5 mM EDTA, 2 mM DTT, 0.1% CHAPS) containing the protease inhibitor and centrifuged by 14,000×g at 4° C. The protein concentration of the obtained upper solution is measured by a BCA protein assay kit. Thereafter, 80[…] of protein is inserted into the 96-well, then the DEVD-pNA substrate is inserted, thereafter, a reaction is progressed for 4 hours at 37° C. The absorbance is measured at 405 nm.

`CC(=O)Nc1ccc(O)cc1` [AAP, Acetaminophen]: in series [1], the “Cell apoptosis by DAPI dyeing (FIG. 8)” value is “many cell apoptosis modes with the red color are formed” and the “DNA fragmentation in liver cell (FIG. 8)” value is on record as “The DNA fractions are confirmed identically”. Also, in series [2], the “Caspase-3 cleavage/activity (western blot, FIG. 8)” value was “cleaved and then the activity is increased”; the “Expression of Bcl-2 (western blot, FIG. 8)” value is on record as “inhibited according to the increase of the AAP concentration”; the “PARP cleavage (western blot, FIG. 8)” value was “cleaved from 116 kDa to 85 kDa”. For the same molecule, in series [3], the “Colour/appearance of the liver (degree of liver injury, FIG. 2)” value is on record as “the liver tissue represents the bright brown” and the “Inside of the liver tissue by optical microscopy, H&E dyeing (FIG. 3)” value is “plural nucleus decomposition positions are observed about the central vein”. The GPT in serum in series [4] (control group 28.83±7.9) was 44.83±11.7 karmen. Also, in series [4] (control group 158.97±13.4), the GOT in serum is recorded as 187.95±20.7 karmen. Besides, the “Activity of caspase-3 in the liver tissue” value in series [5] is given as 143.38±10.25%.
